Measured values as given in publication PMC9398908, “GLP-1-mediated delivery of tesaglitazar improves obesity and glucose metabolism in male mice” (Nature Metabolism, 2022).

Target: T1, PPARγ2/RXR (Homo sapiens, UniProt P37231)
T1 construct: host or cells: HEK293T, with (A8) or without (A9) co-expressed hGLP-1R
T1 sequence (P37231 1-505): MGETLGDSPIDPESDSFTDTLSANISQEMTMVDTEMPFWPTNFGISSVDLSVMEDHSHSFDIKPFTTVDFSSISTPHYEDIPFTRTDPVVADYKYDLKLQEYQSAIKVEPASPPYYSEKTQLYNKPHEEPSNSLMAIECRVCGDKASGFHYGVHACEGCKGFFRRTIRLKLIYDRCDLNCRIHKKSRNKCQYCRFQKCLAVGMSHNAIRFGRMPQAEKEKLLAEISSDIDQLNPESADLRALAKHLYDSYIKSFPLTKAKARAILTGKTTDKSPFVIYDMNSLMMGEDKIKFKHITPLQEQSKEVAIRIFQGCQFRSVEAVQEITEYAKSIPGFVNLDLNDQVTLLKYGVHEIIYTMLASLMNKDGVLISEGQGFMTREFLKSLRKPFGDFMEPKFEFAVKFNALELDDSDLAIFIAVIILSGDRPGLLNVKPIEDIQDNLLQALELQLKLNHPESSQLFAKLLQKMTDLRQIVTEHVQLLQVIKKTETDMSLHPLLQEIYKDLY
T1 sequence (P19793 1-462 partner): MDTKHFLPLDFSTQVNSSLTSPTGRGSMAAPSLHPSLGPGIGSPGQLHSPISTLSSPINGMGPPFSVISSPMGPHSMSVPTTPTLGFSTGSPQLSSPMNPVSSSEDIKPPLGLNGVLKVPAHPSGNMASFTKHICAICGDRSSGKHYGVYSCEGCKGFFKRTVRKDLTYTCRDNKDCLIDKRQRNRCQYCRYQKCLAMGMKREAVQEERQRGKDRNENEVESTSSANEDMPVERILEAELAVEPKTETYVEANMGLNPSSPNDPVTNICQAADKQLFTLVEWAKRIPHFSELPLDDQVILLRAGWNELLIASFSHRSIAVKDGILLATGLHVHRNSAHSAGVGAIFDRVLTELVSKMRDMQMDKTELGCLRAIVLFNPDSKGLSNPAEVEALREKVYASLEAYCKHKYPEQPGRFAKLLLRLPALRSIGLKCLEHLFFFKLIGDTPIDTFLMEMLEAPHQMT
Experiment: RXR-Rluc8 / PPARγ2-YFP heterodimerization (BRET) in hGLP-1R(+) HEK293T cells
Format: cell-based
Conditions: GLP-1R (+), 1μM
Procedure: HEK293T cells (700,000 per well) were seeded in six-well plates and incubated to 70% confluency in DMEM (10% FBS, 1% Pen/Strep). Twenty-four hours following seeding, transient transfections were performed using Lipofectamine 2000 (catalogue no. 11668019, Invitrogen) according to the manufacturer’s protocol without including additional transformation carrier DNA.
Twenty-four hours following transfection, HEK293T cells or MIN6 cells were washed with PBS and resuspended in FluoroBrite phenol red-free complete media (catalogue no. A1896701, Life Technologies) containing 5% FBS and 2 mM of L-glutamine (catalogue no. 25030081, Life Technologies). 100,000 cells per well were plated into poly-D-lysine-coated (catalogue no. P6403, Sigma-Aldrich) 96-well white polystyrene LumiNunc plates (catalogue no. 10072151, Thermo Fisher Scientific). After 24 h, the media was replaced with PBS (catalogue no. 10010056, Gibco) containing 10 μM of coelenterazine-h (catalogue no. S2011, Promega) or 1:500 dilution of NanoGlo (catalogue no. N1110, Promega). BRET measurements were taken every 30 s–2 min using a PHERAstar FS multi-mode microplate reader. Baseline measurements were taken after an initial 5 min of incubation with coelenterazine-h or NanoGlo-containing PBS after which cells were then treated with either vehicle (PBS) or respective ligands. The resulting ligand-specific ratiometric BRET signals were normalized to vehicle producing the ‘ligand-induced BRET ratio’[37], followed by an additional normalization step to well-specific baseline readings. Ligand-induced measurements on the temporal scale is represented as the subsequent measurement after time point zero. Positive or negative incremental AUC (+iAUC/−iAUC) were calculated where noted. Each experiment was independently performed at least three times, each with at least three technical replicates for each group.
Untagged hGLP-1R was purchased from Sino Biological Inc. (catalogue no. HG13944-UT), hGLP-1R-GFP was a kind gift from D. Hodson (University of Birmingham), and hGLP-1R-Rluc8 was a kind gift from P. Sexton (Monash University, Melbourne, Australia). Gαs recruitment to the GLP-1R-GFP was quantified using mini-Gαs, a protein probe that translocates to ligand-bound Gαs-coupled G-protein coupled receptors. NES-Nluc-MiniGαs was a gift from K. Pfleger (Harry Perkins Institute of Medical Research, Nedlands, Western Australia, Australia). Intracellular cAMP was measured using the YFP-Epac-Rluc CAMYEL sensor[39]. hGLP-1R-RLUC8 internalization was quantified using the intracellular plasma membrane marker Venus-KRAS[40]. Venus-KRAS was a kind gift from K. Pfleger. GLP-1R-Rluc8 lysosomal colocalization was measured using Lamp1-mNeonGreen. Lamp1-mNeonGreen was a gift from D. Gadella (Addgene plasmid no. 98882). Time-dependent RXR/PPARγ heterodimerization was measured using RXR-Rluc8 and PPARγ2-YFP, both of which were kind gifts from V. Ollendorf[41].

CCO[C@@H](Cc1ccc(OCCc2ccc(OS(C)(=O)=O)cc2)cc1)C(=O)O [tesaglitazar, (S)-2-ethoxy-3-(4-(4-((methylsulfonyl)oxy)phenethoxy)phenyl) propanoic acid]
RXR/PPARγ Heterodimerization (AUC), +iAUC (replicate 1): 81.74
RXR/PPARγ Heterodimerization (AUC), +iAUC (replicate 2): 115.10
RXR/PPARγ Heterodimerization (AUC), +iAUC (replicate 3): 84.31
RXR/PPARγ Heterodimerization (AUC), +iAUC (replicate 4): 42.82
RXR/PPARγ Heterodimerization (AUC), +iAUC (replicate 5): 35.86
RXR/PPARγ Heterodimerization (AUC), +iAUC (replicate 6): 49.17
RXR/PPARγ Heterodimerization (AUC), +iAUC (replicate 7): 59.85
RXR/PPARγ Heterodimerization (AUC), +iAUC (replicate 8): 106.60
